Experiment [1] deals with exsheathed third-stage larvae (xL3s) of Haemonchus contortus. Nature of the experiment: Primary screen, H. contortus larval development and phenotype (microscopy). Particulars: 20 µM, 168 h. The method, then: An established high-throughput phenotypic screening assay was used to test the anthelmintic activity of compounds on H. contortus xL3s. Compounds were assessed for motility inhibition at a concentration of 20 µM in LB*. […] A solution of LB* + 1% (v/v) DMSO was used as a negative control. Test compounds were distributed amongst one flat-bottom, 384-well microplate (cat no. 3860; Corning, Corning, NY, USA). Eighty xL3s of H. contortus in 20 µl of LB* were added to each well to give a final volume of 40 µl. The plate was then placed in a CO2 incubator (10% [v/v] CO2, 38 °C, > 90% humidity). At 90 h, worm activity was captured using a WMicroTracker ONE unit (Phylumtech, Sunchales, Santa Fe, Argentina). Over a period of 15 min, disturbance of an infrared beam in individual wells was recorded as a worm ‘activity count’. Activity counts were then normalised to the positive and negative controls using the GraphPad Prism program (v.9.1.0 GraphPad Software, San Diego, CA, USA). The screening plate was then returned to the incubator (10% [v/v] CO2, 38 °C, > 90% humidity) for an additional 72 h. At 168 h, worms were fixed with 40 µl of Lugol solution (Sigma-Aldrich, St. Louis, MO, USA). Compounds were then assessed (microscopically) for inhibition of larval development and/or induction of a non-wild-type phenotype in H. contortus worms. […] The performance of the assay was monitored using the Z′-factor [58] calculated using data for the negative (DMSO) and positive (M-666) control compounds on individual plates.

Experiment [2] relates to H. contortus xL3s. Nature of the experiment: H. contortus dose-response assay, xL3 motility. Also noted: species or system Haemonchus contortus. Here is the method:
The dose–response assay for H. contortus followed a well-established protocol; it was employed to evaluate the potency of hit compounds against this nematode. Test compounds were assessed individually for an effect on the motility of xL3s (10-point, twofold serial dilution in LB*, 40–0.16 μM). One compound, monepantel (prepared in the same manner as the test compounds), was used as a positive control. A solution of LB* was used as a negative control. The test and positive-control compounds were arrayed in triplicate across individual flat-bottom 96-well microplates, with six wells on each plate containing the negative control. Three hundred xL3s of H. contortus in 50 μl of LB* were added to each well to give a final volume of 100 μl. Plates were then placed in a CO2 incubator (10% [v/v] CO2, 38 °C, > 90% humidity). […] Over a period of 15 min, disturbance of an infrared beam in individual wells was recorded as a worm activity count. Raw activity counts for each well were normalised to the negative controls. The compound concentrations were log10-transformed and fitted using a variable-slope four-parameter equation, using the ordinary least squares fit model, employing GraphPad Prism (v.9.1.0). Larval development was established at 168 h of incubation with compound, as described previously. The development inhibition and phenotypes of larvae were examined microscopically. A one-way analysis of variance (ANOVA) with a Tukey multiple comparison test or an unpaired t-test was used to establish statistically significant differences in larval motility or development.

Experiment [3] deals with H. contortus larvae. Nature of the experiment: H. contortus dose-response assay, larval development. Also noted: species or system Haemonchus contortus. Particulars: Haemonchus contortus, 168 h, read-out: IC50, inhibition of H. contortus larval development. Here is the method: The dose–response assay for H. contortus followed a well-established protocol; it was employed to evaluate the potency of hit compounds against this nematode. Test compounds were assessed individually for an effect on the motility of xL3s (10-point, twofold serial dilution in LB*, 40–0.16 μM). One compound, monepantel (prepared in the same manner as the test compounds), was used as a positive control. A solution of LB* was used as a negative control. The test and positive-control compounds were arrayed in triplicate across individual flat-bottom 96-well microplates, with six wells on each plate containing the negative control. Three hundred xL3s of H. contortus in 50 μl of LB* were added to each well to give a final volume of 100 μl. Plates were then placed in a CO2 incubator (10% [v/v] CO2, 38 °C, > 90% humidity). After 168 h of incubation, worm activity was captured using a WMicroTracker ONE unit. Over a period of 15 min, disturbance of an infrared beam in individual wells was recorded as a worm activity count. Raw activity counts for each well were normalised to the negative controls. The compound concentrations were log10-transformed and fitted using a variable-slope four-parameter equation, using the ordinary least squares fit model, employing GraphPad Prism (v.9.1.0). Larval development was established at 168 h of incubation with compound, as described previously. The development inhibition and phenotypes of larvae were examined microscopically. A one-way analysis of variance (ANOVA) with a Tukey multiple comparison test or an unpaired t-test was used to establish statistically significant differences in larval motility or development.

In experiment [4] the test system is acetylcholine esterase (AChE). The settings on record: in vitro and in vivo; direct or indirect effect not confirmed; cited from earlier work.

This is an account of results in article PMC10938758, “A phenotypic screen of the Global Health Priority Box identifies an insecticide with anthelmintic activity” (Parasites & Vectors, 2024).

`CC(F)c1ncnc(NCCc2ccc(OC(F)(F)F)cc2)c1Cl` (stereo not shown) [MMV1794206, flufenerim]: the Abnormal phenotype result in experiment [1] (H. contortus larvae) is given as “Cur”. The “Induction of an abnormal phenotype (in words)” value in experiment [1] (H. contortus larvae) was “induced an abnormal phenotype”. For the same compound, the inhibition at 20 µM in experiment [1] (Haemonchus contortus, H. contortus, read-out: Larval development inhibition, %) came to 100%. Moreover, the IC50 in experiment [2] (Haemonchus contortus, 90 h, read-out: IC50, H. contortus larval motility inhibition) came to 18 µM; in experiment [3] it was 1200 nM. For the same compound, the “Maximum motility inhibition (MMI), H. contortus larvae” value in experiment [2] (xL3s, 90 h of incubation) is on record as 98%. In addition, the “AChE activity in whiteflies following treatment” value in experiment [4] is listed as “decrease in acetylcholine esterase (AChE) activity”.

By inhibition is commonly meant the drop in the measured response relative to a control, in per cent. Usually IC50 stands for the concentration that inhibits the measured activity by half.
